Like-named read-outs stand apart in the source and are kept apart here.
Legend:
[1] = molecular target: T1, PPARγ (Homo sapiens, UniProt P37231); conditions: TR-FRET-based assay
T1 sequence (P37231 235-505 limits assumed): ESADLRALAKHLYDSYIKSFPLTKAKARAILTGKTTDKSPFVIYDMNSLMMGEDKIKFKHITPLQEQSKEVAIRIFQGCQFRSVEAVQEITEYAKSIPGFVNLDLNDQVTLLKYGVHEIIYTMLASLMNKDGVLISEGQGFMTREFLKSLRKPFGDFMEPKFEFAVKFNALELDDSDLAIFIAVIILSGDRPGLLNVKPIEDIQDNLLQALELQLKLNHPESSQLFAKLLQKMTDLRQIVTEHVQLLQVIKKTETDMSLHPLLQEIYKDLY

[2] = molecular target: T2, PPARδ (Homo sapiens, UniProt Q03181); conditions: TR-FRET-based assay
T2 sequence (Q03181 171-441 limits assumed): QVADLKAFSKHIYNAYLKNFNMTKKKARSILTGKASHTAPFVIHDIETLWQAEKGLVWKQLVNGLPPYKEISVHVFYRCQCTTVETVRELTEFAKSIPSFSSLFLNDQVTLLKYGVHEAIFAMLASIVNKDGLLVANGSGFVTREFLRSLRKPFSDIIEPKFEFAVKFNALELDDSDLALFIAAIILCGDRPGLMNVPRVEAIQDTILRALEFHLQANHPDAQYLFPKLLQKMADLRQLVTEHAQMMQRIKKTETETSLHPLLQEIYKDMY

[3] = system: hBM-MSCs; conditions: 10 μM cotreated with IDX medium for 5 d
[4] = molecular target: T3, PPARδ-LBD (Homo sapiens, UniProt Q03181)
T3 sequence (Q03181 211-439 limits assumed): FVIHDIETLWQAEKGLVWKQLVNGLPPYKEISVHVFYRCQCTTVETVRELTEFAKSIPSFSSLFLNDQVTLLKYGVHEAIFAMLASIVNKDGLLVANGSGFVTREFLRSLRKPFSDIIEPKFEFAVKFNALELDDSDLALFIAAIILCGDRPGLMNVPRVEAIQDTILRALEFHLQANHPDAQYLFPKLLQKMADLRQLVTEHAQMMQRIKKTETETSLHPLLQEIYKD

[5] = molecular target: T3, PPARδ-LBD; remark: listed apart in the source
[6] = molecular target: T4, human A3AR (Homo sapiens, UniProt P0DMS8); conditions: at 10 μM; previously reported; cited from earlier work
T4 sequence (P0DMS8 1-318): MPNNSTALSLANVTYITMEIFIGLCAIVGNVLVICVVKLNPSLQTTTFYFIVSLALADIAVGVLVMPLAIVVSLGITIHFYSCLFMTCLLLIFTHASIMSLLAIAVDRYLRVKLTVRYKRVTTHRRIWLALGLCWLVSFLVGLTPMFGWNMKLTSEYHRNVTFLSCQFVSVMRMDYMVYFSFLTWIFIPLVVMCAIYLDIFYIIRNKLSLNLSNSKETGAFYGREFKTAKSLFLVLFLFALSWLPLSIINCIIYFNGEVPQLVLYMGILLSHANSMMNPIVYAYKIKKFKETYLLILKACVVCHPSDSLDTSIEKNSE

[7] = molecular target: T5, PPARγ-LBD (Homo sapiens, UniProt P37231); conditions: fluorescein-TRAP220/DRIP peptide
T5 sequence (P37231 238-503 limits assumed): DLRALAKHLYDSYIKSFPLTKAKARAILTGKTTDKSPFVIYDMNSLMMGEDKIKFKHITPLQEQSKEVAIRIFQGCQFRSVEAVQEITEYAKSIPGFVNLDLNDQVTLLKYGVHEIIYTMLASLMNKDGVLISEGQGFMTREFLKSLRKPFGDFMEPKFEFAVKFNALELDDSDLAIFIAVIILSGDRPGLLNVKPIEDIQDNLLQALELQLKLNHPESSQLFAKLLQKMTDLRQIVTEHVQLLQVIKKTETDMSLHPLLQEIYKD

[8] = molecular target: T4, human A3AR; conditions: at 10 μM

SMILES	adiponectin production compared to the IDX vehicle control [3]	interaction between PPARδ-LBD and corepressor peptide SMRT-ID2 [4]	recruitment of coactivator peptide C33 to PPARδ-LBD [5]	hA3AR % replacement [6]	further results
O[C@@H]1[C@H](O)CS[C@H]1Cn1cnc2c(NCc3cccc(F)c3)nc(Cl)nc21 [4a, (2S,3R,4S)-2-((2-Chloro-6-((3-fluorobenzyl)amino)-9H-purin-9-yl)methyl)tetrahydrothiophene-3,4-diol]	significantly promoted adiponectin production	significantly increased the interaction between PPARδ-LBD and the corepressor peptide	no effect on the recruitment of coactivator peptide	17% at 10 μM	PPARγ-binding activity (in words) [1]: significant dual receptor-binding activity; PPARδ-binding activity (in words) [2]: significant dual receptor-binding activity
O[C@@H]1[C@H](O)CS[C@H]1Cn1cnc2c(NCc3cccc(Cl)c3)nc(Cl)nc21 [4b, (2S,3R,4S)-2-((2-Chloro-6-((3-chlorobenzyl)amino)-9H-purin-9-yl)methyl)tetrahydrothiophene-3,4-diol]	–	–	–	13% at 10 μM	–
O[C@@H]1[C@H](O)CS[C@H]1Cn1cnc2c(NCc3cccc(Br)c3)nc(Cl)nc21 [4c, (2S,3R,4S)-2-((6-((3-Bromobenzyl)amino)-2-chloro-9H-purin-9-yl)methyl)tetrahydrothiophene-3,4-diol]	significantly promoted adiponectin production	significantly increased the interaction between PPARδ-LBD and the corepressor peptide	no effect on the recruitment of coactivator peptide	21% at 10 μM	PPARγ-binding activity (in words) [1]: significant dual receptor-binding activity; PPARδ-binding activity (in words) [2]: significant dual receptor-binding activity
O[C@@H]1[C@H](O)CS[C@H]1Cn1cnc2c(NCc3cccc(I)c3)nc(Cl)nc21 [4d, (2S,3R,4S)-2-((2-Chloro-6-((3-iodobenzyl)amino)-9H-purin-9-yl)-methyl)tetrahydrothiophene-3,4-diol]	–	significantly increased the interaction between PPARδ-LBD and the corepressor peptide	no effect on the recruitment of coactivator peptide	10% at 10 μM	PPARδ-binding activity (in words) [2]: significant dual receptor-binding activity; PPARδ corepressor recruitment in presence of PPARδ agonist 27 ([4]; 27 (1 μM), 4d (10 μM), 28 (1 μM)): significantly inhibited by 27
O[C@@H]1[C@H](O)CS[C@H]1Cn1cnc2c(NCc3cccc(F)c3)ncnc21 [4e, (2S,3R,4S)-2-((6-((3-Fluorobenzyl)amino)-9H-purin-9-yl)methyl)-tetrahydrothiophene-3,4-diol]	–	–	–	9% at 10 μM	–
O[C@@H]1[C@H](O)CS[C@H]1Cn1cnc2c(NCc3cccc(Cl)c3)ncnc21 [4f, (2S,3R,4S)-2-((6-((3-Chlorobenzyl)amino)-9H-purin-9-yl)methyl)-tetrahydrothiophene-3,4-diol]	–	–	–	9% at 10 μM	–
O[C@@H]1[C@H](O)CS[C@H]1Cn1cnc2c(NCc3cccc(Br)c3)ncnc21 [4g, (2S,3R,4S)-2-((6-((3-Bromobenzyl)amino)-9H-purin-9-yl)methyl)-tetrahydrothiophene-3,4-diol]	–	–	–	6% at 10 μM	–
O[C@@H]1[C@H](O)CS[C@H]1Cn1cnc2c(NCc3cccc(I)c3)ncnc21 [4h, (2S,3R,4S)-2-((6-((3-Iodobenzyl)amino)-9H-purin-9-yl)methyl)-tetrahydrothiophene-3,4-diol]	–	–	–	14% at 10 μM	–
CC#Cc1nc(NCc2cccc(F)c2)c2ncn(C[C@@H]3SC[C@@H](O)[C@H]3O)c2n1 [4i, (2S,3R,4S)-2-((6-((3-Fluorobenzyl)amino)-2-(prop-1-yn-1-yl)-9H-purin-9-yl)methyl)tetrahydrothiophene-3,4-diol]	significantly promoted adiponectin production	–	–	–	–
CC#Cc1nc(NCc2cccc(Cl)c2)c2ncn(C[C@@H]3SC[C@@H](O)[C@H]3O)c2n1 [4j, (2S,3R,4S)-2-((6-((3-Chlorobenzyl)amino)-2-(prop-1-yn-1-yl)-9H-purin-9-yl)methyl)tetrahydrothiophene-3,4-diol]	–	–	–	–	coactivator peptide recruitment to PPARγ-LBD [7]: no statistical significance
CC#Cc1nc(NCc2cccc(Br)c2)c2ncn(C[C@@H]3SC[C@@H](O)[C@H]3O)c2n1 [4k, (2S,3R,4S)-2-((6-((3-Bromobenzyl)amino)-2-(prop-1-yn-1-yl)-9H-purin-9-yl)methyl)tetrahydrothiophene-3,4-diol]	significantly promoted adiponectin production	–	–	–	–
CC#Cc1nc(NCc2cccc(I)c2)c2ncn(C[C@@H]3SC[C@@H](O)[C@H]3O)c2n1 [4l, (2S,3R,4S)-2-((6-((3-Iodobenzyl)amino)-2-(prop-1-yn-1-yl)-9H-purin-9-yl)methyl)tetrahydrothiophene-3,4-diol]	significantly promoted adiponectin production	–	–	–	–
O[C@@H]1[C@H](O)CO[C@H]1Cn1cnc2c(NCc3cccc(Cl)c3)nc(Cl)nc21 [4n, (2S,3R,4R)-2-((2-Chloro-6-((3-chlorobenzyl)amino)-9H-purin-9-yl)methyl)tetrahydrofuran-3,4-diol]	significantly promoted adiponectin production	significantly increased the interaction between PPARδ-LBD and the corepressor peptide	no effect on the recruitment of coactivator peptide	–	–
O[C@@H]1[C@H](O)CO[C@H]1Cn1cnc2c(NCc3cccc(Br)c3)nc(Cl)nc21 [4o, (2S,3R,4R)-2-((6-((3-Bromobenzyl)amino)-2-chloro-9H-purin-9-yl)methyl)tetrahydrofuran-3,4-diol]	significantly promoted adiponectin production	significantly increased the interaction between PPARδ-LBD and the corepressor peptide	no effect on the recruitment of coactivator peptide	–	–
O[C@@H]1[C@H](O)CO[C@H]1Cn1cnc2c(NCc3cccc(I)c3)nc(Cl)nc21 [4p, (2S,3R,4R)-2-((2-Chloro-6-((3-iodobenzyl)amino)-9H-purin-9-yl)-methyl)tetrahydrofuran-3,4-diol]	–	–	–	–	hA3AR % replacement [8]: 3% at 10 μM
